Experiments:
Estrogen receptor beta [1] = target: T1, Estrogen receptor beta (Homo sapiens, UniProt Q92731)
Description: Antagonist activity at estrogen receptor beta ligand binding domain expressed in african green monkey COS7 cells co-transfected with Gal4-LBD by luciferase reporter gene assay

[2] = target: T2, Mineralocorticoid receptor (Homo sapiens, UniProt P08235); experiment: Agonist activity at mineralocorticoid receptor ligand binding domain expressed in african green monkey COS7 cells co-transfected with Gal4-LBD up to 10 uM by luciferase reporter gene assay; assay type: cell-based; conditions: cos-7
T2 sequence (P08235 whole entry): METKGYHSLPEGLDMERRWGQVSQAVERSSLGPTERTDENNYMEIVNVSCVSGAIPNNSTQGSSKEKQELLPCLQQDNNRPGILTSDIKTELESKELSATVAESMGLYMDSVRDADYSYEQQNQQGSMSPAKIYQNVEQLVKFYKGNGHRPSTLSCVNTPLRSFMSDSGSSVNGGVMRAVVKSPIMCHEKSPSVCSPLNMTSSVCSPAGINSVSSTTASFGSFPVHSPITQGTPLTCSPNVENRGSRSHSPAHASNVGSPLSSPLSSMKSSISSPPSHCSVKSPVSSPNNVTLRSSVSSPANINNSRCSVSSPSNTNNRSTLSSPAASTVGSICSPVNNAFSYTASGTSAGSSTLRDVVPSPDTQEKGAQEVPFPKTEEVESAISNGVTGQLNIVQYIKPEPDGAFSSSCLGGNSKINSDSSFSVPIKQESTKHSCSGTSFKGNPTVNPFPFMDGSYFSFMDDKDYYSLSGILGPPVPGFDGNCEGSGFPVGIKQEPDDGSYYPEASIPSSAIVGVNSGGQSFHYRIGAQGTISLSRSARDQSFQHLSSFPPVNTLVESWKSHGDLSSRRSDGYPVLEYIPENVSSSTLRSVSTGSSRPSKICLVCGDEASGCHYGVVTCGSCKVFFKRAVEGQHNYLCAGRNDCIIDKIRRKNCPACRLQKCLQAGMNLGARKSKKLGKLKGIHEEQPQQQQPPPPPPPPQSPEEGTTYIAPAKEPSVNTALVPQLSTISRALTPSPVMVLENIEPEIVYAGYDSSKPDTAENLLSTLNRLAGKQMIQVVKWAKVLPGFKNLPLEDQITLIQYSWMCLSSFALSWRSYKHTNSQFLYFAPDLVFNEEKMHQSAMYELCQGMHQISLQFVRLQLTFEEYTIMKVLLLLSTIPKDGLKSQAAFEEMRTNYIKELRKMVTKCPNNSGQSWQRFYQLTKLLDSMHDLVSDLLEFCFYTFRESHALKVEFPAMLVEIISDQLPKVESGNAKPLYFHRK

Estrogen receptor beta [3] = target: T1, Estrogen receptor beta; experiment: Agonist activity at estrogen receptor beta ligand binding domain expressed in african green monkey COS7 cells co-transfected with Gal4-LBD up to 10 uM by luciferase reporter gene assay; assay type: cell-based; conditions: cos-7
Glucocorticoid receptor = target: T3, Glucocorticoid receptor (Homo sapiens, UniProt P04150); experiment: Agonist activity at glucocorticoid receptor ligand binding domain expressed in african green monkey COS7 cells co-transfected with Gal4-LBD up to 10 uM by luciferase reporter gene assay; assay type: cell-based; conditions: cos-7
T3 sequence (P04150 whole entry): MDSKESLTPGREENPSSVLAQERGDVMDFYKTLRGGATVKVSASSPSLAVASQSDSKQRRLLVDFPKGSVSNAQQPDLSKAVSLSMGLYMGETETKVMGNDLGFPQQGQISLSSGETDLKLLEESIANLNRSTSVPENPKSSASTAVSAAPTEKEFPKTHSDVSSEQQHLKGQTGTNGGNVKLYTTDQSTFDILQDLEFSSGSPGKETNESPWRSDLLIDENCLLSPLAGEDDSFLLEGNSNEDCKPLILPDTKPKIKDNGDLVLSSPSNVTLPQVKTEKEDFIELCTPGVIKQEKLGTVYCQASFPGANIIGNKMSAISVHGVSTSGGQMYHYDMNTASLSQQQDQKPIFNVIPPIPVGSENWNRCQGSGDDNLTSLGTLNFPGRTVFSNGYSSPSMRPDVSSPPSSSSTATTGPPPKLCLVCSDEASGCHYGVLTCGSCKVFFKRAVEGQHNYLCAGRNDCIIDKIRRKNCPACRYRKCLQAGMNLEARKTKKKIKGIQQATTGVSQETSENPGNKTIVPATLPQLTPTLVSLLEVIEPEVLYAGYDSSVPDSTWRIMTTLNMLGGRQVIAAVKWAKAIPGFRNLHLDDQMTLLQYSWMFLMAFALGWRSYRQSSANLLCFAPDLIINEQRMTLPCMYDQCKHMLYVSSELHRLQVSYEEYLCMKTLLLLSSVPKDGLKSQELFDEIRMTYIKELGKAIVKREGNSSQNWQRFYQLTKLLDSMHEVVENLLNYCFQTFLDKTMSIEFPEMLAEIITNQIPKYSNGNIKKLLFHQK

Progesterone receptor = target: T4, Progesterone receptor (Homo sapiens, UniProt P06401)
T4 sequence (P06401 whole entry): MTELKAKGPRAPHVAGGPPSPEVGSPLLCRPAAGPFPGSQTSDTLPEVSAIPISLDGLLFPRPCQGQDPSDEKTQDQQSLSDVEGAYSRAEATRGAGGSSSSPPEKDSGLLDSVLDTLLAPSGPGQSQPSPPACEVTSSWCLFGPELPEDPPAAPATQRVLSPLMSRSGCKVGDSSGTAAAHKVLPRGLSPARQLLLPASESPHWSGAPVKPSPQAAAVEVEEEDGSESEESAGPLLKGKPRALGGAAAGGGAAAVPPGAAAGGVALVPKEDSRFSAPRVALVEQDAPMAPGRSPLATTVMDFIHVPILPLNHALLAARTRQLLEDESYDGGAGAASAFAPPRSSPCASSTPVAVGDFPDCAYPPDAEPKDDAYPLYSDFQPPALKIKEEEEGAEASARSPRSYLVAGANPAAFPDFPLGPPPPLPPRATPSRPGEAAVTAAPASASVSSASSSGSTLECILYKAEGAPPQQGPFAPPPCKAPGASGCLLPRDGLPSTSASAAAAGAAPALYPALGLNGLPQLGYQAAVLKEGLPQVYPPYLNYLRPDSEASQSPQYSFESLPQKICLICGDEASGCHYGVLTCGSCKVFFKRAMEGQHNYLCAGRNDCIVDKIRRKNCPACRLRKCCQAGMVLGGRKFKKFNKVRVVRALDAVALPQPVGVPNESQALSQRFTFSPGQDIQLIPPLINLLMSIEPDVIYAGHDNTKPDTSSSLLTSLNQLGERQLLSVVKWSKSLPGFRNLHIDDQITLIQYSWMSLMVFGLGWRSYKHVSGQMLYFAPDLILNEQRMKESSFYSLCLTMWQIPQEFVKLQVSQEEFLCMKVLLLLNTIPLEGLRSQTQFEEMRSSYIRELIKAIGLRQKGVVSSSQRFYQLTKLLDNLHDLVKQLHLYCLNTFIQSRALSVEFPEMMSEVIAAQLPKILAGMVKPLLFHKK

T1 sequence (Q92731 whole entry, the tested form may be a part): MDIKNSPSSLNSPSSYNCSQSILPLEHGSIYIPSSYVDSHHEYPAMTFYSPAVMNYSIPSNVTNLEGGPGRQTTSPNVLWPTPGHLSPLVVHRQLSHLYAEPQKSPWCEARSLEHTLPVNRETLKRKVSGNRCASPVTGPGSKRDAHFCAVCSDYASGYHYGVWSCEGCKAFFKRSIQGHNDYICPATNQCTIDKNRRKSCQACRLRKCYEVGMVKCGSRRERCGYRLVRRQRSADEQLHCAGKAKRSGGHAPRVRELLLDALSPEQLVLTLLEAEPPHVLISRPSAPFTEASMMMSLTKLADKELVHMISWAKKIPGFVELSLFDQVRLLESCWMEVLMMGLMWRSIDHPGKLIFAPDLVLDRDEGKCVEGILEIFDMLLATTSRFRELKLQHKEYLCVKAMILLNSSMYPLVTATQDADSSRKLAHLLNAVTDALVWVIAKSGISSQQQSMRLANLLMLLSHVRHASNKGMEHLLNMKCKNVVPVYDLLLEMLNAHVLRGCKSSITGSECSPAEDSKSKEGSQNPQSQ

SMILES	IC50 (Estrogen receptor beta [1]) [µM]	EC50 [2]	EC50 (Estrogen receptor beta [3])	EC50 (Glucocorticoid receptor)	EC50 (Progesterone receptor) [nM]
CC1(C)C(=O)CC[C@]2(C)[C@@]3(C)c4[nH]c5ccccc5c4C[C@@H]3CC[C@@]12O [LECANINDOLE B]	> 10	Not Active	Not Active	Not Active	0.3
CC1(C)[C@H](O)CC[C@]2(C)[C@@]3(C)c4[nH]c5ccccc5c4C[C@@H]3CC[C@@]12O [LECANINDOLE D]	> 3	Not Active	Not Active	Not Active	1.1
